Data from US9113629B2, “4-amino-6-(4-substituted-phenyl)-picolinates and 6-amino-2-(4-substituted-phenyl)-pyrimidine-4-carboxylates and their use as herbicides” (DOW AGROSCIENCES LLC, priority 2013, dated 2015).

system: Key Broadleaf Weed and Crop Species; test: Post-emergent Test II herbicidal activity (Table 5); type: in vivo; conditions: post-emergence, 336 h; ABUTH: velvetleaf (Abutilon theophrasti); application rate 70 g ai/ha; 14 days after application; read-out: Visual Growth Reduction (%) 14 Days After Application, ABUTH
Procedure, shortened: (§1)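 Foliar application at 187 L/ha to greenhouse-grown seedlings (first or second true leaf); subirrigation thereafter. Visual 0–100% injury at 14 d relative to untreated plants.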

Row | SMILES | pest or weed control at 70 g/ha [%]
1 | Nc1c(F)c(-c2ccc(I)c(F)c2)nc(C(=O)O)c1Cl [Compound 157] | 85 to 94

same assay, conditions: post-emergence, 336 h; ABUTH: velvetleaf (Abutilon theophrasti); application rate 140 g ai/ha; 14 days after application; read-out: Visual Growth Reduction (%) 14 Days After Application, ABUTH

Row | SMILES | pest or weed control at 140 g/ha [%]
2 | Nc1c(F)c(-c2ccc(I)c(F)c2)nc(C(=O)O)c1Cl [Compound 157] | 85 to 94

same assay, conditions: post-emergence, 336 h; AMARE: redroot pigweed (Amaranthus retroflexus); application rate 70 g ai/ha; 14 days after application; read-out: Visual Growth Reduction (%) 14 Days After Application, AMARE

Row | SMILES | pest or weed control at 70 g/ha [%]
3 | Nc1c(F)c(-c2ccc(I)c(F)c2)nc(C(=O)O)c1Cl [Compound 157] | 95 to 100

same assay, conditions: post-emergence, 336 h; AMARE: redroot pigweed (Amaranthus retroflexus); application rate 140 g ai/ha; 14 days after application; read-out: Visual Growth Reduction (%) 14 Days After Application, AMARE

Row | SMILES | pest or weed control at 140 g/ha [%]
4 | Nc1c(F)c(-c2ccc(I)c(F)c2)nc(C(=O)O)c1Cl [Compound 157] | 95 to 100

same assay, conditions: post-emergence, 336 h; BRSNN: oilseed-rape, canola (Brassica napus); application rate 70 g ai/ha; 14 days after application; read-out: Visual Growth Reduction (%) 14 Days After Application, BRSNN

Row | SMILES | pest or weed control at 70 g/ha [%]
5 | Nc1c(F)c(-c2ccc(I)c(F)c2)nc(C(=O)O)c1Cl [Compound 157] | 95 to 100

same assay, conditions: post-emergence, 336 h; BRSNN: oilseed-rape, canola (Brassica napus); application rate 140 g ai/ha; 14 days after application; read-out: Visual Growth Reduction (%) 14 Days After Application, BRSNN

Row | SMILES | pest or weed control at 140 g/ha [%]
6 | Nc1c(F)c(-c2ccc(I)c(F)c2)nc(C(=O)O)c1Cl [Compound 157] | 95 to 100

same assay, conditions: post-emergence, 336 h; CHEAL: lambsquarters (Chenopodium album); application rate 70 g ai/ha; 14 days after application; read-out: Visual Growth Reduction (%) 14 Days After Application, CHEAL

Row | SMILES | pest or weed control at 70 g/ha [%]
7 | Nc1c(F)c(-c2ccc(I)c(F)c2)nc(C(=O)O)c1Cl [Compound 157] | 95 to 100

same assay, conditions: post-emergence, 336 h; CHEAL: lambsquarters (Chenopodium album); application rate 140 g ai/ha; 14 days after application; read-out: Visual Growth Reduction (%) 14 Days After Application, CHEAL

Row | SMILES | pest or weed control at 140 g/ha [%]
8 | Nc1c(F)c(-c2ccc(I)c(F)c2)nc(C(=O)O)c1Cl [Compound 157] | 95 to 100

same assay, conditions: post-emergence, 336 h; EPHHL: wild poinsettia (Euphorbia heterophylla); application rate 70 g ai/ha; 14 days after application; read-out: Visual Growth Reduction (%) 14 Days After Application, EPHHL

Row | SMILES | pest or weed control at 70 g/ha [%]
9 | Nc1c(F)c(-c2ccc(I)c(F)c2)nc(C(=O)O)c1Cl [Compound 157] | 95 to 100

same assay, conditions: post-emergence, 336 h; EPHHL: wild poinsettia (Euphorbia heterophylla); application rate 140 g ai/ha; 14 days after application; read-out: Visual Growth Reduction (%) 14 Days After Application, EPHHL

Row | SMILES | pest or weed control at 140 g/ha [%]
10 | Nc1c(F)c(-c2ccc(I)c(F)c2)nc(C(=O)O)c1Cl [Compound 157] | 95 to 100

same assay, conditions: post-emergence, 336 h; HELAN: sunflower (Helianthus annuus); application rate 70 g ai/ha; 14 days after application; read-out: Visual Growth Reduction (%) 14 Days After Application, HELAN

Row | SMILES | pest or weed control at 70 g/ha [%]
11 | Nc1c(F)c(-c2ccc(I)c(F)c2)nc(C(=O)O)c1Cl [Compound 157] | 95 to 100

same assay, conditions: post-emergence, 336 h; HELAN: sunflower (Helianthus annuus); application rate 140 g ai/ha; 14 days after application; read-out: Visual Growth Reduction (%) 14 Days After Application, HELAN

Row | SMILES | pest or weed control at 140 g/ha [%]
12 | Nc1c(F)c(-c2ccc(I)c(F)c2)nc(C(=O)O)c1Cl [Compound 157] | 95 to 100

same assay, conditions: post-emergence, 336 h; VIOTR: wild pansy (Viola tricolor); application rate 70 g ai/ha; 14 days after application; read-out: Visual Growth Reduction (%) 14 Days After Application, VIOTR

Row | SMILES | pest or weed control at 70 g/ha [%]
13 | Nc1c(F)c(-c2ccc(I)c(F)c2)nc(C(=O)O)c1Cl [Compound 157] | 95 to 100

same assay, conditions: post-emergence, 336 h; VIOTR: wild pansy (Viola tricolor); application rate 140 g ai/ha; 14 days after application; read-out: Visual Growth Reduction (%) 14 Days After Application, VIOTR

Row | SMILES | pest or weed control at 140 g/ha [%]
14 | Nc1c(F)c(-c2ccc(I)c(F)c2)nc(C(=O)O)c1Cl [Compound 157] | 95 to 100

system: Key Grass and Sedge Weeds as well as Grass Crops; test: Post-emergent Test II herbicidal activity (Table 6); type: in vivo; conditions: post-emergence, 336 h, CYPES: yellow nutsedge (Cyperus esculentus), 70 g ai/ha, read-out: Visual Growth Reduction (%) 14 Days After Application, CYPES
Procedure, shortened: as §1

Row | SMILES | pest or weed control at 70 g/ha [%]
15 | Nc1c(F)c(-c2ccc(I)c(F)c2)nc(C(=O)O)c1Cl [Compound 157] | 45 to 59

same assay, conditions: post-emergence, 336 h, CYPES: yellow nutsedge (Cyperus esculentus), 140 g ai/ha, read-out: Visual Growth Reduction (%) 14 Days After Application, CYPES

Row | SMILES | pest or weed control at 140 g/ha [%]
16 | Nc1c(F)c(-c2ccc(I)c(F)c2)nc(C(=O)O)c1Cl [Compound 157] | 45 to 59

same assay, conditions: post-emergence, 336 h, DIGSA: crabgrass (Digitaria sanguinalis), 70 g ai/ha, read-out: Visual Growth Reduction (%) 14 Days After Application, DIGSA

Row | SMILES | pest or weed control at 70 g/ha [%]
17 | Nc1c(F)c(-c2ccc(I)c(F)c2)nc(C(=O)O)c1Cl [Compound 157] | 75 to 84

same assay, conditions: post-emergence, 336 h, DIGSA: crabgrass (Digitaria sanguinalis), 140 g ai/ha, read-out: Visual Growth Reduction (%) 14 Days After Application, DIGSA

Row | SMILES | pest or weed control at 140 g/ha [%]
18 | Nc1c(F)c(-c2ccc(I)c(F)c2)nc(C(=O)O)c1Cl [Compound 157] | 85 to 94

same assay, conditions: post-emergence, 336 h, ECHCG: barnyardgrass (Echinochloa crus-galli), 70 g ai/ha, read-out: Visual Growth Reduction (%) 14 Days After Application, ECHCG

Row | SMILES | pest or weed control at 70 g/ha [%]
19 | Nc1c(F)c(-c2ccc(I)c(F)c2)nc(C(=O)O)c1Cl [Compound 157] | 95 to 100

same assay, conditions: post-emergence, 336 h, ECHCG: barnyardgrass (Echinochloa crus-galli), 140 g ai/ha, read-out: Visual Growth Reduction (%) 14 Days After Application, ECHCG

Row | SMILES | pest or weed control at 140 g/ha [%]
20 | Nc1c(F)c(-c2ccc(I)c(F)c2)nc(C(=O)O)c1Cl [Compound 157] | 95 to 100

same assay, conditions: post-emergence, 336 h, ORYSA: rice (Oryza sativa), crop, 70 g ai/ha, read-out: Visual Growth Reduction (%) 14 Days After Application, ORYSA

Row | SMILES | pest or weed control at 70 g/ha [%]
21 | Nc1c(F)c(-c2ccc(I)c(F)c2)nc(C(=O)O)c1Cl [Compound 157] | 0 to 29

same assay, conditions: post-emergence, 336 h, ORYSA: rice (Oryza sativa), crop, 140 g ai/ha, read-out: Visual Growth Reduction (%) 14 Days After Application, ORYSA

Row | SMILES | pest or weed control at 140 g/ha [%]
22 | Nc1c(F)c(-c2ccc(I)c(F)c2)nc(C(=O)O)c1Cl [Compound 157] | 0 to 29

same assay, conditions: post-emergence, 336 h, SETFA: giant foxtail (Setaria faberi), 70 g ai/ha, read-out: Visual Growth Reduction (%) 14 Days After Application, SETFA

Row | SMILES | pest or weed control at 70 g/ha [%]
23 | Nc1c(F)c(-c2ccc(I)c(F)c2)nc(C(=O)O)c1Cl [Compound 157] | 95 to 100

same assay, conditions: post-emergence, 336 h, SETFA: giant foxtail (Setaria faberi), 140 g ai/ha, read-out: Visual Growth Reduction (%) 14 Days After Application, SETFA

Row | SMILES | pest or weed control at 140 g/ha [%]
24 | Nc1c(F)c(-c2ccc(I)c(F)c2)nc(C(=O)O)c1Cl [Compound 157] | 95 to 100

same assay, conditions: post-emergence, 336 h, SORVU: grain sorghum (Sorghum vulgare), 70 g ai/ha, read-out: Visual Growth Reduction (%) 14 Days After Application, SORVU

Row | SMILES | pest or weed control at 70 g/ha [%]
25 | Nc1c(F)c(-c2ccc(I)c(F)c2)nc(C(=O)O)c1Cl [Compound 157] | 85 to 94

same assay, conditions: post-emergence, 336 h, SORVU: grain sorghum (Sorghum vulgare), 140 g ai/ha, read-out: Visual Growth Reduction (%) 14 Days After Application, SORVU

Row | SMILES | pest or weed control at 140 g/ha [%]
26 | Nc1c(F)c(-c2ccc(I)c(F)c2)nc(C(=O)O)c1Cl [Compound 157] | 95 to 100

same assay, conditions: post-emergence, 336 h, TRZSS (wheat, Triticum aestivum), crop, 70 g ai/ha, read-out: Visual Growth Reduction (%) 14 Days After Application, TRZSS

Row | SMILES | pest or weed control at 70 g/ha [%]
27 | Nc1c(F)c(-c2ccc(I)c(F)c2)nc(C(=O)O)c1Cl [Compound 157] | 45 to 59

same assay, conditions: post-emergence, 336 h, TRZSS (wheat, Triticum aestivum), crop, 140 g ai/ha, read-out: Visual Growth Reduction (%) 14 Days After Application, TRZSS

Row | SMILES | pest or weed control at 140 g/ha [%]
28 | Nc1c(F)c(-c2ccc(I)c(F)c2)nc(C(=O)O)c1Cl [Compound 157] | 45 to 59

same assay, conditions: post-emergence, 336 h, ZEAMX: maize, corn (Zea mays), crop, 70 g ai/ha, read-out: Visual Growth Reduction (%) 14 Days After Application, ZEAMX

Row | SMILES | pest or weed control at 70 g/ha [%]
29 | Nc1c(F)c(-c2ccc(I)c(F)c2)nc(C(=O)O)c1Cl [Compound 157] | 95 to 100

same assay, conditions: post-emergence, 336 h, ZEAMX: maize, corn (Zea mays), crop, 140 g ai/ha, read-out: Visual Growth Reduction (%) 14 Days After Application, ZEAMX

Row | SMILES | pest or weed control at 140 g/ha [%]
30 | Nc1c(F)c(-c2ccc(I)c(F)c2)nc(C(=O)O)c1Cl [Compound 157] | 95 to 100

system: not given; test: not given; conditions: not given

Row | melting point | SMILES
31 | 140 to 150 °C (dec.) | Nc1c(F)c(-c2ccc(I)c(F)c2)nc(C(=O)O)c1Cl [Compound 157]
